# Columns and labels:
# [1] = system: rat hippocampal neurons pretreated with PTZ; experiment: Patch clamp current record and action potential analysis; format: cell-based
# Procedure: If the resting membrane potential of the cell was −70 mV and the input resistance was 350MΩ or more, the patch clamp current was considered acceptable. The record was held at −80 mV as the holding current and induced by increasing positive current injection (for 1000 ms). The action potential differences between PTZ treated cells (measured 24 h after application) and PTZ treated epileptic cells (measured 10 min after application) treated with rMarTX were compared. The peak width was measured at half the peak amplitude of the action potential. The difference between the peak threshold value and the minimum voltage after the peak value of the action potential was used as the measurement value of the post-superpotential. Peak interval was the time between action potential peaks.
# In the current patch clamp recording, the standard external solution was composed of 1.2 mM MgCl2, 10 mM HEPES, 10 mM glucose, 1.5 mM CaCl2, 2.5 mM KCl and 145 mM NaCl. The pH of the solution was adjusted to 7.4 with NaOH. The internal solution was composed of 1 mM CaCl2, 4 mM MgCl2, 10 mM HEPES, 11 mM EGTA, and 140 mM KCl. The pH of the solution was adjusted to 7.2 with KOH.
# [2] = system: c-Fos expression in hippocampus; experiment: c-Fos expression in hippocampus after seizures in rats (immunohistochemistry); format: in vivo, rat; design: concentration or dose not given beside the values
# Procedure: After the completion of the PTZ-induced epileptic status behavior experiment, the animals were anesthetized by intraperitoneal injection of sodium pentobarbital (60 mg/kg). The blood vessels were washed by perfusion of 200 mL normal saline through the ascending aorta of the left ventricle, and then perfused with 400 mL fixative solution (0.1M PBS containing […], pH7.4, 4° C.) for 1-2 h. After the brain tissue was removed and placed in the same fixative overnight, it was immersed in 20% sucrose solution until it sank to the bottom of the container, and then immersed in 30% sucrose solution until it sank to the bottom of the container.
# The hippocampal region was secreted from the brain of the rats using a refrigerator slicer (Leica 1900, Germany) with a thickness of 20 μm. The slices were pasted on gelatin-chromium potassium sulfate treated glass slide and frozen at −20° C. for later use. C-Fos immunohistochemistry was performed as follows: • (1) The slice was taken out of the −20° C. refrigerator, reheated for 30 min, framed with a histochemical pen around the slice, and dried; • (2) The slices were immersed for 30 min for braking membrane in 1% Triton-X solution added with 1% H2O2; • (3) Rinsed 3 times with 0.01M PBS (pH7.4) buffer, 5 min for each time; • (4) Sealed with 5% Goat serum at 37° C. for 1 h; • (5) The serum was sucked dry with filter paper, rabbit anti-c-Fos antibody (1: 400, Sc-52, Santa Cruz, USA) was added, the antibody was diluted with 0.01 M PBS, 100 μL for each section, and incubated in a wet box at 4° C. for 48 h; • (6) Rinsed with 0.01 M PBS (pH 7.4) for 10 min and repeated 3 times; • (7) Biotin-labeled goat anti-rabbit IgG diluted with 0.01 M PBS (1:200) was added at room temperature for 2 h; • (8) Rinsed with 0.01 M PBS for 10 min and repeated 3 times. ABC complex (A:B:PBS=1:1:100) was added at room temperature for 2 h; • (9) Rinsed with 0.01 M PBS (pH 7.4) for 10 min and repeated 3 times; • (10) Stained in the dark by DAB-nickel sulfate amine-glucose oxidase (DAB, Sangon Biotech) for 10 min; • (11) Dehydration, 70%, 80%, 95%, 100% (×2) were used for dehydration, 5 min each time, and then soaked with xylene twice, 5 min each time; • (12) The expression of c-Fos was observed under a microscope and sealed with neutral gum.
# The number of c-Fos-like immunoreactive (FLI) neurons in different hippocampal regions (CA1, CA3) and dentate gyrus (DG) was counted. Two groups of animals (6 animals in each group) were randomly selected from 6 to 8 sections for FLI counting in different regions (counting respectively on the same side and the other side of injected toxin or normal saline), and the average value was calculated at last. The inhibition rate of c-Fos expression was calculated according to the following formula. Inhibitory ratio=(A−B)/A×100%
# Wherein, A represents the number of FLI neurons in the normal saline control group; B represents the number of FLI neurons in the MarTX toxin injection group in the corresponding region of the hippocampus.
# [3] = system: hippocampus field potential; experiment: Field potential in hippocampus after seizure in rats; format: in vivo, rat; settings: PTZ epilepsy model, versus normal saline group, n=3
# Procedure: Microarray electrodes were implanted according to the sixth edition of “Rat Brain Stereotactic Atlas” (FIG. 1) edited by George Paxinos and Charles Watson to determine the position of the electrodes: AP: 4.3 mm, MR: 2.2 mm, DV: 2.5 mm, and 3-4 screws were fixed in the blank region of the skull as reference electrodes. The recording electrode and electrode base were fixed with dental cement. Field potentials (FP) were recorded after waking rats. FP signal and sync video could be recorded via omniplex (plexon, USA). According to Nesquet's sampling theory, the back end of the electrode was connected to a preamplifier and coupled to the analog-to-digital converter box. […] was taken as the sampling frequency of local field potential recording, and a […] were set for continuous recording for more than 30 minutes. The local field potential recording results were exported to *. pl2 file format, and visual preview was carried out using offline sorter v4 software. The same channel was used to analyze the local field potential, and the data were derived by MATLAB (MathWorks, USA) program. The local field potential signals of different frequencies were decomposed by wavelet transform to obtain the […] of different frequencies (δ: ˜0-4 Hz, θ: ˜4-8 Hz, α: ˜8-13 Hz, β: ˜13-30 Hz, γ: ˜30-100 Hz). […]
# [4] = system: rat PTZ convulsion model; experiment: Recurrent convulsive behavior of PTZ in rat; format: in vivo
# Procedure: Adult male SD rats were placed in a transparent glass box of 40×30×50 cm to observe the convulsive reaction after administration. Before injection, rats were placed in the box 1 h in advance, moved freely to adapt to the environment, and then injected PTZ (60 mg/kg) intraperitoneally to induce convulsion in rats. The experiment was divided into toxin injection group and normal saline blank control group.
# (1) MarTX toxin injection group: after one intraperitoneal injection of PTZ to induce seizures of epilepsy, the rats were injected with MarTX toxin (dissolved in 2 μL normal saline) in the hippocampus the next day, and then the PTZ was injected again. The toxin dose was 0.08 μg, n=7-8 (n is the number of experimental rats);
# (2) Normal saline blank control group: after one intraperitoneal injection of PTZ to induce seizures of epilepsy, the rats were injected with the same amount of normal saline into the hippocampus one day later, and then PTZ was injected again, n=6.
# In the experiment, “double-blind” dosing and animal behavioral study were used to reduce human error. Incubation period, mortality, duration and number of seizures under different severity of seizures were measured as statistical indexes. The severity of seizures in rats was rated according to the following criteria [Neurophysiol. 1972, 32, 281-294; Brain Res. 1997, 758, 92-98]: • Grade 0: no response; • Grade 1: rhythmic twitch of mouth and face; • Grade 2: wave-like migratory spasm of body; • Grade 3: systemic myoclonus and hip upturned; • Level 4: the body turned to one side; • Grade 5: inverted position, systemic rigidity spasticity seizure.
# A complete convulsive seizure was defined as the period from the onset of the seizure to the return to normal after the seizure. The interval of more than 5 s between seizures was defined as another independent seizure. Incubation period was defined as the time from PTZ injection to the beginning of the first grade 2 seizure.
# [5] = system: hippocampal neurons; experiment: Hippocampal neuron damage after seizures in rats (Nissel staining); format: in vivo, rat; settings: versus normal saline group
# Procedure: (1) The slice was taken out of the −20° C. refrigerator, reheated for 20 min, framed with a histochemical pen around the slice, and dried;
# (2) The slice was soaked in distilled water for 2 min;
# (3) Nissel staining solution (purchased from Beyotime) was dropped on the brain slice, and dyed in a 37° C. water bath for 10 min;
# (4) Washed twice with distilled water for 10 s each time;
# (5) Sections were dehydrated with 70%, 80%, 95%, 100% alcohol, 2 min each time, and then soaked with xylene twice, 5 min each time;
# (6) The nissel body staining was observed under a microscope and sealed with neutral gum.
# The above two groups of animals (6 animals in each group) were randomly selected from 6 to 8 sections to count the neuron cells in different hippocampal regions (CA1, CA3 and DG). Finally, the average value was taken and the increasing rate of the number of neurons was calculated.
# [6] = 300 pA current injection, versus normal saline group, n=4
# [7] = contralateral hippocampus, CA1 region
# [8] = contralateral hippocampus, CA3 region
# [9] = contralateral hippocampus, DG region
# [10] = ipsilateral hippocampus, CA1 region
# [11] = ipsilateral hippocampus, CA3 region
# [12] = ipsilateral hippocampus, DG region
# [13] = 0.08 μg in hippocampus, PTZ 60 mg/kg i.p., within 2 h
# [14] = MarTX relative to normal saline
substance,measurement,setting,value
Martentoxin [MarTX],Discharge rate (number of action potentials),"[1]; 100, 200 and 300 pA current injection, versus normal saline group, n=4",significant decrease
same,Action potential peak interval,"[1]; 300 pA current injection, versus PTZ pretreated cells (normal saline group), n=4",significantly longer
same,Action potential width,[1]; [6],greater
same,Amplitude of the post-hypertrophy potential,[1]; [6],significantly increased
same,Action potential failure,"[1]; higher current injection (300 pA), versus normal saline group",more action potential failure
same,Inhibitory rate of c-Fos expression,[2]; [7],54.01%
same,Inhibitory rate of c-Fos expression,[2]; [8],55.25%
same,Inhibitory rate of c-Fos expression,[2]; [9],78.53%
same,Inhibitory rate of c-Fos expression,[2]; [10],60.71%
same,Inhibitory rate of c-Fos expression,[2]; [11],51.18%
same,Inhibitory rate of c-Fos expression,[2]; [12],84.98%
same,"Power spectrum density of brain δ, θ, α, β and γ waves",[3],significantly lower
same,Duration of epilepsy,[4]; [13],160.00 ± 38.47 s
same,Number of deaths,[4]; [13],0/6
same,The number of Grade 3 seizures,[4]; [13],0.50 ± 0.22
same,The number of seizures from Grade 1 to Grade 2,[4]; [13],4.33 ± 1.36
same,The number of seizures from Grade 4 to Grade 5,[4]; [13],0.50 ± 0.34
same,Incubation,"[4]; 0.08 μg in hippocampus, PTZ 60 mg/kg i.p., within 2 h, time to first grade 2 seizure",427.17 ± 62.21 s
same,Decrease of the number of epileptic seizures (Grade 4 & 5),"[4]; 0.08 μg, versus control group",77%
same,"Duration of epilepsy, relative amplitude",[4]; [14],40%
same,"Incubation, relative amplitude",[4]; [14],272%
same,"The number of Grade 3 seizures, relative amplitude",[4]; [14],14%
same,"The number of seizures from Grade 1 to Grade 2, relative amplitude",[4]; [14],42%
same,"The number of seizures from Grade 4 to Grade 5, relative amplitude",[4]; [14],23%
same,Reduction of the number of Grade 3 seizures,[4]; versus blank control group,86%
same,Reduction of the duration of epilepsy,[4]; versus control group,"(2) MarTX toxin also significantly reduced the duration of epilepsy (duration of MarTX group: 160.00 ± 38.47 s, n = 6, *P < 0.05; control group was 400.00 ± 97.57 s, n = 6) by about 60%."
same,Neuronal increase rate,[5]; [7],79.50%
same,Neuronal increase rate,[5]; [8],94.82%
same,Neuronal increase rate,[5]; [9],79.62%
same,Neuronal increase rate,[5]; [10],95.73%
same,Neuronal increase rate,[5]; [11],102.02%
same,Neuronal increase rate,[5]; [12],93.43%
